From patent US6773893B1, “Human ABC1 promoter and assays based thereon” (The Trustees of Columbia University in the City of New York, priority 2000, dated 2004)
Entries after “also recorded” stand apart in the source; their conditions may differ.

What was measured:
hABC1 promoter [1] = assay: hABC1 promoter-luciferase reporter in RAW 264.7 cells; format: cell-based, mouse; settings: for hABC1 promoter activity compared to basal conditions: 10 μM, Firefly/Renilla luciferase ratio vs ethanol; for hABC1 promoter induction (summary statement): RAW macrophages, upstream promoter (-469 bp)
Protocol: In FIG. 5A a fragment of the hABC1 promoter ([…] to +101 bp) was linked to Firefly luciferase reporter gene. The resulting plasmid was cotransfected with a control reporter plasmid (Renilla luciferase) in the mouse macrophage-like RAW 264.7 cells. Four independent transfections experiments (each in triplicates) were performed. The results are expressed as a ratio between the Firefly and Renilla luciferase activities. Cells were treated with vehicle or 22(R)-Hch (10 μM), 9CRA (10 μM) and 22(R)-Hch (10 μM)+9CRA (10 μM), 24 hours in FBS medium complemented with 10% LPDS. […] Two independent experiments in triplicate were performed according to the protocol described in (a), using a shorter promoter: […] +101 pb. […] The same experiments as (a) were performed using 22(R)-Hch (10 μM), 25-Hch (10 μM), 7K-Ch (10 μM) and 9CRA (10 μM). Three to four independent experiments in duplicate or triplicate were performed. Mann Whitney tests were mean to analyze the difference between “Ethanol” and “Treatment”. In these Figures, ***=P<0.001,*=P<0.05.
(§1) The cell lines were purchased from ATCC (Rockville, Md., USA). The murine RAW 264.7, African green monkey CV-1, and human 293 or HepG2 cell lines were maintained in Dulbecco's modified Eagle's medium (DMEM) with 10% Fetal Bovine Serum (FBS), 100 U/ml penicillin and […] streptomycin. THP-1 cells were maintained in RPMI-1640 containing L-glutamine, 10% heat inactivated FBS, 100 U/ml penicillin and […] streptomycin supplemented with 0.5 mM B-mercaptoethanol. Confluent cells were differentiated with 0.2 mM phorbol 12-myristate 13-acetate (Sigma Chemical Co., St Louis, Mo., USA) in ethanol during 72 hours. Thioglycollate-elicited peritoneal macrophages were isolated from C57 Bl/6 mice as described (31).
(§2) Transfections were performed in 24-wells plates with Lipofectamine reagent (transactivation experiments in CV-1 and 293 cells, FIG. 6-7) or Lipofectamine-Plus reagent (Basal activation experiments in RAW 264.7, FIG. 5) according to the manufacturer's instructions (Life Technologies, Grand Island, N.Y., USA). For basal activation experiments a total of […] of reporter DNA and 0.05 mg of PRL-CMV(Renilla) (Promega Corp., Madison, Wis., USA) per well were used. For transactivation studies we used, per well, 0.025 mg of PRL-CMV, 0.2 mg of reporter DNA and 0.1 mg of each receptors (CMX-hRXRα, CMX-hLXRα, CMV-mLXRβ) or 0.2 mg of pcDNA3. The transfected cells were cultured in lipoprotein deficient serum (LPDS) medium in the presence of […] of 22(R)-hydroxycholesterol (22(R)-HCh), 25-hydroxycholesterol (25-HCh) or 7-ketocholesterol (7-KCh), […] 9-cis retinoic acid (9CRA) (Sigma Chemical Co., St Louis, Mo., USA) or ethanol alone for 24 hours. The luciferase activities were measured using Promega Dual Luciferase assay system. Reporter plasmid used to analyse the activity of hABC1 promoter was constructed by subcloning a 1029 bp PCR fragment of hABC1 promoter (−928 bp +101 bp) into pGL3-Luc basic vector (Promega). […] A shorter promoter (−469 bp to +101 bp) was generated by digestion of this plasmid with Sac1. Where shown, error bars represent the standard deviation.

hABC1 promoter [2] = assay: hABC1 promoter (-469 bp +101 bp) luciferase reporter in 293 cells with or without LXR/RXR; format: cell-based, human; settings: for upregulation of the hABC1 promoter: 293 cells without transfected LXR/hRXR, 10 μM, 24 h
Protocol: as §1, §2

[3] = system: LXR/hRXRα binding site of the CETP promoter; assay: Luciferase reporter with 3 copies of the LXR responsive element of the CETP promoter in 293 cells; format: cell-based, human; settings: for increase in luciferase activity: absence of transfected receptors
Protocol: as §2

LXR = settings: from cited references; cited from earlier work
hABC1 promoter [4] = assay: Transactivation of the hABC1 promoter by LXR/RXR in CV-1 cells; format: cell-based, human
Protocol: as §2, with “The cell lines were purchased from ATCC (Rockville, Md., USA). The murine RAW 264.7, African green monkey CV-1, and human 293 or HepG2 cell lines were maintained in Dulbecco's modified Eagle's medium (DMEM) with 10% Fetal Bovine Serum (FBS), 100 U/ml penicillin and […] streptomycin. THP-1 cells were maintained in RPMI-1640 containing L-glutamine, 10% heat inactivated FBS, 100 U/ml penicillin and […] streptomycin supplemented with 0.5 mM B-mercaptoethanol. Confluent cells were differentiated with 0.2 mM phorbol 12-myristate 13-acetate (Sigma Chemical Co., St Louis, Mo., USA) in ethanol during 72 hours. Thioglycollate-elicited peritoneal macrophages were isolated from C57 Bl/6 mice as described (31). Transfections” for “Transfections”

[5] = system: hABC1 mRNA in THP-1 macrophages; assay: Northern blot of ABC1 mRNA in THP-1 macrophages; format: cell-based, human; parameters: dose or concentration left out as unconfirmed; settings: 24 h, vs ethanol
Protocol: as §1

SF1 = SF1 (Homo sapiens, UniProt Q13285); settings: from cited references; cited from earlier work
SF1, sequence (Q13285 whole entry): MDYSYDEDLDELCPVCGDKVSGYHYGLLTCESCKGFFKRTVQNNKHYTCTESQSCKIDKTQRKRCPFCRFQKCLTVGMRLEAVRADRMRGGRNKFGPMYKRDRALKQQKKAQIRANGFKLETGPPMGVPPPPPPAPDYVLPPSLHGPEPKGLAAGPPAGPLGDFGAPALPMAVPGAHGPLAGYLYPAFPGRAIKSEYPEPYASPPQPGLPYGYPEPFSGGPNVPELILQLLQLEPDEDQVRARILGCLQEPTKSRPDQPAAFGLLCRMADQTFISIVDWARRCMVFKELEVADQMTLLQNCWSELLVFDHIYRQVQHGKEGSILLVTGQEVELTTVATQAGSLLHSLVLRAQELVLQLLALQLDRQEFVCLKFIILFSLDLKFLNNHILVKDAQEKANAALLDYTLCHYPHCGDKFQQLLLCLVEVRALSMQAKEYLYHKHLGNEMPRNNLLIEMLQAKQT

Compound | hABC1 promoter activity compared to basal conditions (hABC1 promoter [1]; RAW 264.7 cells, 24 h) | upregulation of the hABC1 promoter (hABC1 promoter [2]) | hABC1 promoter induction (summary statement) (hABC1 promoter [1]) | activator of LXR / LXR-RXR (LXR) | ABC1 mRNA induction [5] | activator of SF1 (SF1) | increase in luciferase activity [3] | also measured
CC(C)CCC[C@@H](C)[C@H]1CC[C@H]2[C@@H]3C(=O)C=C4C[C@@H](O)CC[C@]4(C)[C@H]3CC[C@]12C [7-KCh, 7-ketocholesterol] | No significant effect; also recorded: poor activator |  |  |  |  |  |  | hABC1 promoter activity compared to 9CRA alone (hABC1 promoter [1]; RAW 264.7 cells, sterol in combination with 9CRA (10 μM each), 24 h): 2 fold
CC1=C(/C=C/C(C)=C\C=C\C(C)=C\C(=O)O)C(C)(C)CCC1 [9CRA, 9-cis retinoic acid] | 8 fold | 3.5 fold | 8 fold |  |  |  |  | effect on hABC1 promoter activity with transfected receptors (hABC1 promoter [2]; 293 cells transfected with LXRα/hRXRα): no additional effect; activity compared to non-transfected cells ([3]; LXR transfected): no further increase in activity
C[C@@H](CO)CCC[C@@H](C)[C@H]1CC[C@H]2[C@@H]3CC=C4C[C@@H](O)CC[C@]4(C)[C@H]3CC[C@]12C [27-HCh] |  |  |  | relatively poor activator |  |  |  | 
CC(C)CC[C@@H](O)[C@@H](C)[C@H]1CC[C@H]2[C@@H]3CC=C4C[C@@H](O)CC[C@]4(C)[C@H]3CC[C@]12C [22(R)-HCh, 22(R)-hydroxycholesterol] | 7 fold | 4.5 fold | 7 fold | good activator | 2 fold | poor activator | 14 fold | transactivation of the hABC1 promoter compared to the control with no receptor (hABC1 promoter [4]; CV-1 cells cotransfected with hRXRα/LXRα): 6 fold; transactivation of the hABC1 promoter compared to the control with no receptor (hABC1 promoter [4]; CV-1 cells cotransfected with hRXRα/LXRβ): 8 fold; activation of the hABC1 promoter (hABC1 promoter [4]; CV-1 cells without transfected receptors): 4 fold
9-cis retinoic acid [9CRA] |  |  |  |  | 2 fold |  | 24 fold | 
C[C@H](CCCC(C)(C)O)[C@H]1CC[C@H]2[C@@H]3CC=C4C[C@@H](O)CC[C@]4(C)[C@H]3CC[C@]12C [25-HCh, 25-hydroxycholesterol] | 1.5 fold |  |  | poor activator |  | good activator |  | 
